Data reported in publication PMC3292467, “Comparison between ^68Ga-bombesin (^68Ga-BZH3) and the cRGD tetramer ^68Ga-RGD4 studies in an experimental nude rat model with a neuroendocrine pancreatic tumor cell line” (EJNMMI Research, 2011).
“Also recorded” adds a separate entry of the source. Where two headings read alike, the source gives them in different places. Square brackets hold non-standard residues; d marks the D form. Peptide text beside a SMILES is read from it. * marks the point of attachment. DOTA = O=C(O)CN1CCN(CC(=O)O)CCN(CC(=O)*)CCN(CC(=O)O)CC1; 2Thi = N[C@@H](Cc1cccs1)C(=O)O; Nle = CCCC[C@H](N)C(=O)O; AEEA = NCCOCCOCC(=O)O; βAla = NCCC(=O)O

What was measured:
[1] = Dynamic PET, tumor uptake (SUV) in AR42J tumor-bearing nude rats; type: in vivo, rat; conditions: rat, in vivo, iv, i.v. 20 to 40 MBq (BZH3, n = 5), 10 to 30 MBq (RGD4, n = 4), nude rats, read-out: SUV (standardized uptake value) in tumor
From the text: (§1) Irregular regions of interest were drawn manually.

AR42J tumor [2] = assay: as above; type: in vivo, rat; conditions: for SUV (standardized uptake value) in tumor: 55 to 60 min post-injection, i.v. 20 to 40 MBq (BZH3, n = 5), 10 to 30 MBq (RGD4, n = 4), nude rats
From the text: as §1

AR42J tumor [3] = conditions: for VB (vessel density, fractional blood volume) / K1 (transport into the cell; associated with receptor binding) / RBP (receptor binding potential) / k2 (displacement from the receptor) / k3 (cellular internalisation) / k4 (externalization): AR42J tumor-bearing nude rats, n = 5 (BZH3), n = 4 (RGD4); for VB (vessel density, fractional blood volume): dynamic PET 60 min, i.v.
Experimental: The AR42J cell line, derived from a rat exocrine pancreas neuroendocrine tumor, was used. Cells were obtained from the European Collection of Cell Cultures and were grown in RPMI 1640 medium supplemented with 2 mmol/L glutamine and 10% fetal calf serum. Adherent cells were dislodged with trypsin/ethylenediaminetetraacetic acid (0.02%: 0.05%, w/v). For PET-studies, 5 × 10^6 cells in 200 μl RPMI without supplements were inoculated subcutaneously in the right hind leg of Wistar rats.
The study included nine AR 42 J tumor-bearing nude rats. We grouped all rats according to PET tracers (B, ^68Ga-BZH3 and R, ^68Ga-RGD4), used in dynamic PET scanning, as noted in Table 1. Dynamic PET studies were performed for 60 min after the intravenous application of 10 to 30 MBq ^68Ga-RGD4 or 20 to 40 MBq ^68Ga-BZH3, using a 28-frame protocol (ten frames of 30 s, five frames of 60 s, five frames of 120 s, and eight frames of 300 s). Two animals can be examined in parallel per scanning by a homemade injector (Figure 2). A dedicated PET-CT system (Biograph™ mCT, 128 S/X, Siemens Co, Erlangen, Germany) with an axial field of view of 21.6 cm with TrueV, operated in a three-dimensional mode, was used for all animal studies. The system provides the simultaneous acquisition of 369 transverse slices with a slice thickness of 0.6 mm. The animals were positioned in the axial plane of the system to maintain the best resolution in the center of the system. All PET images were attenuation-corrected and an image matrix of 400 × 400 pixels was used for iterative image reconstruction (voxel size 1.565 × 1.565 × 0.6 mm) based on the syngo MI PET/CT 2009C software version. After the end of the dynamic series an ultrahigh resolution CT with 85 mA, 80 kV and a pitch of 0.85 cm was performed for attenuation correction of the acquired dynamic emission data. The reconstructed images were converted to SUV images based on the formula [24]: SUV = Tissue concentration (becquerel per gram)/[injected dose ([…]))/body weight (gram)]. The SUV 55 to 60 min post-injection was used for the assessment of both tracers. The SUV images were used for all further quantitative evaluations.
Dynamic PET data were evaluated using the software package PMOD (provided courtesy of PMOD Technologies Ltd., Zuerich, Switzerland). Areas with enhanced tracer uptake on transaxial, coronal, and sagittal images were evaluated visually. A volume of interest consists of several regions of interest over the target area. Irregular regions of interest were drawn manually. A detailed quantitative evaluation of tracer kinetics requires the use of compartmental modeling. A two-tissue-compartment model was used to evaluate the dynamic studies.
In animals, a partial volume correction must be applied to the data due to the small size of the input and tumor volumes of interest (VOIs). Herein, the recovery coefficient was 0.85 for a diameter of 8 mm and 0.32 for a diameter of 3 mm based on phantom measurements as well as the recent parameter settings used with the reconstruction software. For the input function the mean values of the VOI data obtained from the heart were used. We used a preprocessing tool, which allowed a fit of the input curve by a sum of up to three decaying exponentials. The learning-machine two-tissue-compartment model was used for the fitting and provided five parameters: the transport parameters for tracer into and out of the cell, K1 and k2, the parameters for phosphorylation and dephosphorylation of intracellular tracer, k3 and k4, and the fractional blood volume, also called vessel density (VB), which reflects the amount of blood in the VOI. Following compartment analysis, we calculated the global influx of tracer from the compartment data using the formula: influx = (K1 × k3)/(k2 + k3). […] The model parameters were accepted when K1 - k4 was less than 1 and VB exceeded 0. The unit for the rate constants K1 to k4 was 1/min.

[4] = tested on: gastrointestinal stromal tumors; conditions: ref [15], cited from earlier work
From the text: Bombesin and the two mammalian bombesin-like peptides, […] regulate many biologic response processes through activation of distinct receptor subtypes, including modulation of smooth muscle contraction, secretion of neuropeptides and hormones, as well as stimulation of cell growth. Activation of neuromedin B (BB1) receptors has been reported in various human cancers.

[5] = 3D fused PET-CT images; male rat
Experimental: The study included nine AR 42 J tumor-bearing nude rats. We grouped all rats according to PET tracers (B, ^68Ga-BZH3 and R, ^68Ga-RGD4), used in dynamic PET scanning, as noted in Table 1. Dynamic PET studies were performed for 60 min after the intravenous application of 10 to 30 MBq ^68Ga-RGD4 or 20 to 40 MBq ^68Ga-BZH3, using a 28-frame protocol (ten frames of 30 s, five frames of 60 s, five frames of 120 s, and eight frames of 300 s). Two animals can be examined in parallel per scanning by a homemade injector (Figure 2). A dedicated PET-CT system (Biograph™ mCT, 128 S/X, Siemens Co, Erlangen, Germany) with an axial field of view of 21.6 cm with TrueV, operated in a three-dimensional mode, was used for all animal studies. The system provides the simultaneous acquisition of 369 transverse slices with a slice thickness of 0.6 mm. The animals were positioned in the axial plane of the system to maintain the best resolution in the center of the system. […] The SUV images were used for all further quantitative evaluations.
Dynamic PET data were evaluated using the software package PMOD (provided courtesy of PMOD Technologies Ltd., Zuerich, Switzerland). Areas with enhanced tracer uptake on transaxial, coronal, and sagittal images were evaluated visually. […] A detailed quantitative evaluation of tracer kinetics requires the use of compartmental modeling. […]

gliomas = conditions: compared with ^68Ga-DOTATOC in meningiomas, ref [47]; cited from earlier work
From the text: Concerning the ^68Ga-BZH3 kinetics, k1 is a parameter that reflects the receptor binding and k3 is a parameter that reflects the internalization of the tracer.

[6] = median, between tracers P 0.05*

CCCC[C@H](NC(=O)[C@H](Cc1cccs1)NC(=O)[C@H](Cc1c[nH]cn1)NC(=O)CCNC(=O)[C@@H](NC(=O)[C@H](C)NC(=O)[C@H](Cc1c[nH]c2ccccc12)NC(=O)[C@H](CCC(N)=O)NC(=O)[C@@H](Cc1ccc(O)cc1)NC(=O)COCCOCCNC(=O)COCCOCCNC(=O)CN1CCN(CC(=O)O)CCN(CC(=O)O)CCN(CC(=O)O)CC1)C(C)C)C(N)=O [^68Ga-BZH3, DOTA-PEG2-[D-Tyr^6 -β-Ala^11 -Thi^13 -Nle^14]BN(6-14) amide, metal not drawn] ({DOTA-AEEA-AEEA}-[dY]QWAV[βAla]H[2Thi][Nle]-NH2)
SUV ([1]; mean, 55 to 60 min post-injection): 1.08 SUV
SUV ([1]; median, 55 (56) to 60 min post-injection, between tracers P 0.8065): 1.19 SUV
tumor visualisation (AR42J tumor [2]; 3D fused PET-CT image, tumor in lower leg): clearly showed enhanced ^68Ga-BZH3 uptake in the tumor area in the lower leg
tumor uptake compared with the other tracer (AR42J tumor [2]; ^68Ga-BZH3 vs ^68Ga-RGD4, AR42J tumor-bearing nude rats): generally higher than ^68Ga-RGD4 uptake; also recorded: higher than that of ^68Ga-RGD4
SUV (standardized uptake value) in tumor (AR42J tumor [2]; maximum): 1.2884
SUV (standardized uptake value) in tumor (AR42J tumor [2]; minimum): 0.8628
FD, VB, K1 and RBP compared between tracers (AR42J tumor [3]; ^68Ga-BZH3 vs ^68Ga-RGD tetramer): generally higher than the corresponding values for the ^68Ga-RGD tetramer
VB (vessel density, fractional blood volume) (AR42J tumor [3]; maximum): 0.1646
K1 (transport into the cell; associated with receptor binding) (AR42J tumor [3]; maximum): 0.4862 min⁻¹
RBP (receptor binding potential) (AR42J tumor [3]; maximum): 0.1202
k2 (displacement from the receptor) (AR42J tumor [3]; maximum): 0.6103 min⁻¹
k3 (cellular internalisation) (AR42J tumor [3]; maximum): 0.2005 min⁻¹
k4 (externalization) (AR42J tumor [3]; maximum): 0.1746 min⁻¹
VB (vessel density, fractional blood volume) (AR42J tumor [3]; mean): 0.1037
K1 (transport into the cell; associated with receptor binding) (AR42J tumor [3]; mean): 0.3717 min⁻¹
RBP (receptor binding potential) (AR42J tumor [3]; mean): 0.0765
k2 (displacement from the receptor) (AR42J tumor [3]; mean): 0.4808 min⁻¹
k3 (cellular internalisation) (AR42J tumor [3]; mean): 0.1235 min⁻¹
k4 (externalization) (AR42J tumor [3]; mean): 0.0986 min⁻¹
VB (vessel density, fractional blood volume) (AR42J tumor [3]; [6]): 0.0903
RBP (receptor binding potential) (AR42J tumor [3]; median, between tracers P 0.0275*): 0.0607
K1 (transport into the cell; associated with receptor binding) (AR42J tumor [3]; [6]): 0.3506 min⁻¹
k4 (externalization) (AR42J tumor [3]; [6]): 0.1005 min⁻¹
k2 (displacement from the receptor) (AR42J tumor [3]; median, between tracers P 0.4624): 0.5216 min⁻¹
k3 (cellular internalisation) (AR42J tumor [3]; median, between tracers P 0.8065): 0.1177 min⁻¹
VB (vessel density, fractional blood volume) (AR42J tumor [3]; minimum): 0.0603
K1 (transport into the cell; associated with receptor binding) (AR42J tumor [3]; minimum): 0.3055 min⁻¹
RBP (receptor binding potential) (AR42J tumor [3]; minimum): 0.0506
k2 (displacement from the receptor) (AR42J tumor [3]; minimum): 0.2768 min⁻¹
k3 (cellular internalisation) (AR42J tumor [3]; minimum): 0.0580 min⁻¹
k4 (externalization) (AR42J tumor [3]; minimum): 0.0493 min⁻¹
uptake compared with ^18F-FDG [4]: lower than ^18F-FDG
uptake in gastrointestinal stromal tumors ([4]; subgroup of patients): enhanced ^68Ga-BZH3 uptake in a subgroup of patients with gastrointestinal stromal tumors
tracer uptake in other sites [5]: liver, kidney, urinary bladder, and testicles
internalization (gliomas): higher internalization
receptor binding (gliomas): lower receptor binding
